In patent publication US20070037887A1, “Blockade of mtor to prevent a hormonal adaptive response” (University of Virginia Patent Foundation, priority 2003, published 2007):

How the values were obtained:
LTED cells = test: Apoptosis ELISA (Cell Death Detection Kit), LTED cells; assay type: cell-based, human; settings: three day treatment
Procedure: (§1) FIG. 6 is a bar graph portraying data representing the induction of apoptosis in MCF-7 and LTED cells by FTS. Eighty thousand MCF-7 and LTED cells were plated into each well of 12-well plates in their culture media. Two days later, the cells were treated with FTS for 3 days. Apoptosis was measured using a Cell Death Detection Kit from Roche Molecular Biochemicals. Parallel plates subjected to identical treatment were prepared for cell counting. The results were expressed as the values of optical density at 405 nm per 10,000 cells.
(§2) Applicants postulated that these cells might also have become sensitized to the pro-apoptotic effects of estradiol. To test this hypothesis, an ELISA assay was used to assess apoptosis and to compare the effects of estradiol in wild-type and LTED cells. […] The presence of apoptosis in LTED cells was confirmed by the measurement of annexin V and the use of time-lapse microscopy.
(§3) The effect of a three day treatment with FTS on apoptosis in MCF-7 and LTED cells was examined using the ELISA assay for quantitation. […] LTED cells were much more sensitive than MCF-7 cells to the apoptotic effects of FTS.

PHAS-I = PHAS-I phosphorylation in 293T cells (SDS-PAGE mobility, PThr36/45 immunoblot); assay type: cell-based; settings: increasing concentrations, 1 h
Procedure: FIG. 11A & 11B represent data showing FTS inhibits PHAS-I phosphorylation and promotes dissociation of the mTOR-raptor complex in 293T cells. 293T cells were transfected with pcDNA3AU1-mTOR, pcDNA33HARaptor, pcDNA33HA-mLST8, and pCMV-Tag3APHAS-I (FIG. 11A). After 18 h the cells were incubated for 1 h with increasing concentrations of FTS before extracts were prepared. A sample of each extract was subjected to SDS-PAGE and immunoblotted to detect PHAS-I or PThr^36/45. AU1-mTOR was also immunoprecipitated from each extract, and immune complexes were subjected to SDSPAGE and immunoblotted with mTAb2, to detect mTOR, and with anti-HA antibodies, to detect HA-mLST8 and HA-raptor. Nontransfected 293T cells were incubated with increasing concentrations of FTS for 1 h before extracts were prepared. mTOR was immunoprecipitated with mTAb1, and samples were subjected to SDS-PAGE.
To investigate the effects of FTS on mTOR function in 293T cells, changes in the phosphorylation of PHAS-I, a well characterized target of mTOR were monitored. Phosphorylation of Ser64 and Thr69 in PHAS-I causes a dramatic decrease in the mobility of the protein in SDS-PAGE, so that changes in the mobility provide an index of changes in phosphorylation state. […]

MCF-7 cells = test: Apoptosis ELISA (Cell Death Detection Kit), MCF-7 cells; assay type: cell-based, human; settings: three day treatment
Procedure: as §1, §2, §3

CC(C)=CCC/C(C)=C/CC/C(C)=C/CSc1ccccc1C(=O)O [FTS, farnesylthiosalicylic acid]
induction of apoptosis (LTED cells; FTS 75 μM): dramatic increase in apoptosis | induction of apoptosis (LTED cells; FTS 20 and 50 μM): did not induce apoptosis | phosphorylation of PHAS-I (electrophoretic mobility) (PHAS-I): decreased the phosphorylation | reactivity of PHAS-I with PThr36/45 phosphospecific antibodies (PHAS-I): markedly decreased | induction of apoptosis (MCF-7 cells; FTS 75 μM): dramatic increase in apoptosis | induction of apoptosis (MCF-7 cells; FTS 20 and 50 μM): did not induce apoptosis
